Measurements from PMC10154330, “Machine learning-driven multifunctional peptide engineering for sustained ocular drug delivery” (Nature Communications, 2023).
Converted amounts (≈) assume the structure as drawn.

Columns and labels:
[1] = test system: melanin nanoparticles (mNPs); assay: Melanin binding assay for machine learning model validation (RED device, biotin quantitation); set-up: species or system Sepia officinalis; conditions: C-terminal biotinylated peptide 10 µM with mNPs, pH 6.5 PBS, RED 8K device, 24 h, 900 rpm; unbound peptide by fluorescence biotin quantitation; n = 4
Protocol: The mNPs were mixed with C-terminal biotinylated peptides (10 µM) in pH 6.5 PBS solution and incubated in the rapid equilibrium dialysis (RED) 8 K device for 24 h on an orbital shaker at 900 rpm. A total of 10 µL of the solution from the rapid dialysis reservoir was collected. The concentration of unbound biotinylated peptides was analyzed with the Pierce™ Fluorescence Biotin Quantitation Kit. Four sets of melanin binding assays were performed. Melanin binding was calculated as the difference in free peptide normalized with the starting peptide concentration. Experimental melanin binding values of the 127 peptide candidates were compared with the predicted melanin binding values with the Pearson correlation. Melanin binding predictions larger than 100% were cast to 100% because this was the maximum value in the melanin binding training set.

[2] = test system: melanin-induced ARPE-19 cells; assay: Cell-penetration (cell uptake) assay, melanin-induced ARPE-19; format: cell-based, human; conditions: C-terminal biotinylated peptide 100 µM in pH 6.5 PBS, 6 h, 37 °C, 5 PBS washes, RIPA lysis, fluorescence biotin quantitation, n = 3
Protocol: Three 96 well plates per ARPE19 cell type group (melanin-induced or non-melanin induced) were seeded at 0.01 × 10^6 cells/well. ARPE-19 cells were either cultured with DMEM:F12 medium containing 10% FBS according to protocol provided by the vendor (non-melanin induced) or cultured in DMEM high glucose, pyruvate media with 250 µM of ferric ammonium citrate[107] for 2 months (melanin-induced)[20]. The expression of melanin was confirmed visually with bright field microscopy and by measuring absorbance at 475 nm (>0.4 arb. units)[20]. Within each plate, 12 wells were randomly selected to quantify the cell numbers with an automated cell counter (Countess 3 Automated Cell Counter, Thermo Fisher) for normalization in the cell uptake study. […] To quantify cell-associated peptides, the cells were lysed with 100 µL of RIPA lysis buffer at 4 °C for 48 h. The concentration of intracellular biotinylated peptides was analyzed with the Pierce™ Fluorescence Biotin Quantitation Kit. The mean intracellular concentration values of the three replicates were then grouped by cell types (melanin-induced or non-melanin induced), and a two-tailed Mann–Whitney U (Wilcoxon rank-sum) test was calculated using the wilcox.test function in R. The intracellular concentration values were also plotted against experimental melanin binding. […]

[3] = Brimonidine in ocular tissues after ICM injection (LC-MS/MS)
Protocol: (§1) For the IOP measurements in normotensive rabbits, Dutch Belted rabbits (2–3 kg) were used (n = 5). IOP was measured with a hand-held rebound tonometer icareTONOVET (Vantaa, Finland) in the awake and gently restrained rabbit. Each rabbit was acclimatized to the IOP measurement procedure for at least 5 days to obtain a stable background IOP reading. A mean of three IOP measurements for an individual eye were taken every other day for 6 days (3 times in total) and used as a baseline value. For the ICM injection procedure, rabbits were anesthetized with ketamine/xylazine and received topical anesthesia with 0.5% proparacaine hydrochloride. A corneal pre-puncture was performed with a 30 G needle, followed with a single bolus ICM injection of 200 µg (mass of brimonidine) of HR97-brimonidine or brimonidine tartrate solution in 100 µL saline using a 28 G needle. After the procedure, topical bacitracin-neomycin-polymyxin ophthalmic ointment was applied to both eyes to prevent infection and dry eyes. On day 7, an ophthalmologist masked to treatment evaluate the HR97-brimonidine injected eyes with the following items: functionality of lids, lashes, conjunctiva, cornea transparency, pigmentation of corneal endothelium, depth of anterior chambers, inflammation, fibrin strands, and symmetry of the lens[113]. […] In a separate study, a corneal pre-puncture was performed with a 30 G needle, followed with a single bolus ICM injection of 200 µg (mass of brimonidine) containing a physical mixture of unconjugated HR97 and brimonidine tartrate (HR97 + brimonidine), the equivalent amount of HR97 peptide alone, or saline alone in 100 µL saline. On day 7, day 14, day 21, and day 28, an ophthalmologist masked to treatment performed the same safety evaluations described above. IOP was measured on days 2, 3, 4, 5, 6, 7, 8, 10, 12, 14, 16, 18, and 20 after the ICM injection, and change in IOP from the baseline (ΔIOP) was reported. The mean of three IOP measurements was taken for each eye by one observer, and then confirmed by a masked observer. Alternatively, a single topical eye drop (Alphagan® P 0.1%, 50 µL) was given (n = 5). The IOP were measured immediately before the topical dosing (0 h), and at 2, 4, 6 and 8 h after the eyedrop administration. For the pharmacokinetics studies, rabbits (n = 4 per group) received a single ICM injection with 200 µg (mass of brimonidine) HR97-brimonidine as described above. Rabbits were sacrificed 1, 7, 14, 28 days after the injection, and iris, aqueous, and retina were collected for measuring the brimonidine concentration.
Brimonidine concentrations in ocular tissues were measured by liquid chromatography-tandem mass spectrometry (LC-MS/MS) as previously described. All samples were collected in pre-weighed tubes and stored at −80 °C until processing for analysis. Tissue samples were homogenized in 100–600 μL 1 × PBS using a Bullet Blender® (Next Advance, Inc, Troy, NY, USA) before extraction. Brimonidine were extracted from 15 to 50 μL of tissue homogenates with 50 μL of acetonitrile containing 50/50/2.5 ng/mL of the internal standards. The top layer was then transferred to an autosampler vial for LC-MS/MS analysis after centrifugation. All ocular tissue samples were analyzed using a 1 × PBS standard curve for brimonidine. […] The column effluent was monitored using a 5500 mass-spectrometric detector (Sciex) using electrospray ionization operating in positive mode. The mobile phase A was water containing 0.1% formic acid and mobile phase B was acetonitrile containing 0.1% formic acid. The gradient started with mobile phase B held at 20% for 0.5 min and increased to 100% over 0.5 min; 100% mobile phase B was held for 1 min and then returned to 20% mobile phase B and allowed to equilibrate for 1 min.

[4] = test system: melanin nanoparticles (mNPs); assay: Relative binding of drugs to mNPs; set-up: species or system Sepia officinalis
Description: (§2) Supplementary Fig. 1 | Characterization of melanin nanoparticles (mNPs) and biotinylated-melanin
(§3) nanoparticles (b-mNPs). a Representative transmission electron microscopes (TEM) images of mNPs and b-
(§4) (black dots, n = 3 per drug group) and b-mNPs (gray squares, n = 3 per drug group). Data are shown as mean ±
(§5) (1 picture or pasted object on this page, not shown here)

[5] = test system: melanin nanoparticles (mNPs); assay: In vitro melanin binding assay (binding capacity and Kd, RED device, HPLC); set-up: species or system Sepia officinalis; conditions: binding capacity and dissociation constant of ocular drugs, melanin
Protocol: The solutions (400 µL) were then mixed thoroughly with 400 µL of 1 mg/mL mNPs in pH 6.5 PBS solution and transferred to the inner reservoir of the rapid equilibrium dialysis (RED) device inserts (8 K MWCO). The outer reservoir was filled with 800 µL of pH 6.5 PBS solution. The samples were incubated on an orbital shaker with temperature control at 37 °C and 300 rpm for 48 h (n = 3). The solutions from outer reservoir (free drug) were than collected and transferred to an autosampler vial for HPLC analysis (Prominence LC2030, Shimadzu, Columbia, MD) with photodiode-array detection (PDA) system. […] The amount of bound drug was used to calculate the binding capacity (mol drug/mg melanin) and the dissociation constant (Kd) as previously described[20],[34].

[6] = ref 3 of the peer review file, Acheampong et al. 2002; cited from earlier work
Description: 1.5 Brimonidine is applied as eye drops three times per day. […] Why is that? What is the required free brimonidine concentration for activity?

intraocular pressure = assay: IOP measurement in normotensive Dutch Belted rabbits; format: in vivo; conditions: for cumulative IOP change: Brimonidine group
Protocol: as §1

[7] = test system: biotinylated melanin nanoparticles (b-mNPs); assay: Relative binding of drugs to b-mNPs; set-up: species or system Sepia officinalis
Description: as §2, §3, §4, §5

YGRKKRRQRRR [TAT47–57]
melanin binding (bound fraction) [1]: 77.6 ± 1.5%
cell uptake (intracellular peptide concentration) [2]: 457.1 ± 34.2 pmol/100 K cells

Brc1c(NC2=NCCN2)ccc2nccnc12 [brimonidine]
brimonidine levels in eye tissues, Iris ([3]; 1 days, sample 1 (Male)): 11376.8
brimonidine levels in eye tissues, Iris ([3]; 1 days, sample 2 (Male)): 47581.5
brimonidine levels in eye tissues, Iris ([3]; 1 days, sample 3 (Female)): 23310.4
brimonidine levels in eye tissues, Iris ([3]; 7 days, sample 1 (Female)): 2210.2
brimonidine levels in eye tissues, Iris ([3]; 7 days, sample 2 (Female)): 5336.3
brimonidine levels in eye tissues, Iris ([3]; 7 days, sample 3 (Male)): 10576.6
brimonidine levels in eye tissues, Iris ([3]; 7 days, sample 4 (Male)): 7554.5
brimonidine levels in eye tissues, Iris ([3]; 14 days, sample 1 (Female)): 3473.6
brimonidine levels in eye tissues, Iris ([3]; 14 days, sample 2 (Female)): 5226.5
brimonidine levels in eye tissues, Iris ([3]; 14 days, sample 3 (Male)): 4493.7
brimonidine levels in eye tissues, Iris ([3]; 14 days, sample 4 (Male)): 711.1
brimonidine levels in eye tissues, Iris ([3]; 28 days, sample 1 (Male)): 1400.2
brimonidine levels in eye tissues, Iris ([3]; 28 days, sample 2 (Male)): 859.9
brimonidine levels in eye tissues, Iris ([3]; 28 days, sample 3 (Female)): 1137.6
brimonidine levels in eye tissues, Iris ([3]; 28 days, sample 4 (Female)): 522.1
brimonidine levels in eye tissues, Retina ([3]; 1 days, sample 1 (Male)): 23.3
brimonidine levels in eye tissues, Retina ([3]; 1 days, sample 2 (Male)): 64.6
brimonidine levels in eye tissues, Retina ([3]; 1 days, sample 3 (Female)): 636.9
brimonidine levels in eye tissues, Retina ([3]; 1 days, sample 4 (Female)): 1138.2
brimonidine levels in eye tissues, Retina ([3]; 7 days, sample 1 (Female)): 14.2
brimonidine levels in eye tissues, Retina ([3]; 7 days, sample 2 (Female)): 4.9
brimonidine levels in eye tissues, Retina ([3]; 7 days, sample 3 (Male)): 125.6
brimonidine levels in eye tissues, Retina ([3]; 7 days, sample 4 (Male)): 19.8
brimonidine levels in eye tissues, Retina ([3]; 14 days, sample 1 (Female)): 33.2
brimonidine levels in eye tissues, Retina ([3]; 14 days, sample 2 (Female)): 7.4
brimonidine levels in eye tissues, Retina ([3]; 14 days, sample 3 (Male)): 43
brimonidine levels in eye tissues, Retina ([3]; 14 days, sample 4 (Male)): 14.8
brimonidine levels in eye tissues, Retina ([3]; 28 days, sample 1 (Male)): 10.7
brimonidine levels in eye tissues, Retina ([3]; 28 days, sample 2 (Male)): 7.9
brimonidine levels in eye tissues, Retina ([3]; 28 days, sample 3 (Female)): 8.6
brimonidine levels in eye tissues, Retina ([3]; 28 days, sample 4 (Female)): 5.8
Relative binding of drugs to mNPs ([4]; replicate 1 of n = 3): 141.911
Relative binding of drugs to mNPs ([4]; replicate 2 of n = 3): 83.4707
Relative binding of drugs to mNPs ([4]; replicate 3 of n = 3): 74.618
Binding Capacity (mole/mg melanin) [5]: 5e-8 mole/mg melanin
Kd [5]: 5.27 µM
EC50 in the aqueous humor [6]: 2.9 ng/mL (≈ 9.93 nM)
cumulative IOP change (intraocular pressure; rabbit 1, sex printed Female): 3.583
cumulative IOP change (intraocular pressure; rabbit 2, sex printed Male): -9.917
cumulative IOP change (intraocular pressure; rabbit 3, sex printed Female): 9.167
cumulative IOP change (intraocular pressure; rabbit 4, sex printed Male): 13.75
cumulative IOP change (intraocular pressure; rabbit 5, sex printed Female): 2.667
peak ΔIOP at 2 days (intraocular pressure; single ICM injection, 200 µg brimonidine equivalent, n = 5): −2.6 ± 1.65 mmHg
time for the mean ΔIOP to return to baseline (intraocular pressure; single ICM injection, n = 5 per group): 8 days
Relative binding of drugs to b-mNPs ([7]; replicate 1 of n = 3): 84.2618
Relative binding of drugs to b-mNPs ([7]; replicate 2 of n = 3): 102.105
Relative binding of drugs to b-mNPs ([7]; replicate 3 of n = 3): 167.093
